Results on two molecules are retold here after patent US20030215959A1, “Method of screening binding of a compound to a receptor” (priority 2002, published 2003).

The test system of experiment [1] is non-NMDA glutamate receptors in mouse cortical cells. The experiment is described as follows: CNQX displacement assay with homogenized mouse cortical cells, visible difference absorption spectra. Type of experiment: binding. The conditions noted are these: homogenized mouse cortical cells with CNQX in PBS pH 7.4; test compound 100 μM; 310 nm to 450 nm; FIG. 2 traces A-B. The method, then:
Cortical neuronal cultures: Mixed cortical cell cultures containing both neurons and astrocytes were prepared from fetal mice (15-16 day gestation) as described by Asrari and Lobner (14). Briefly, dissociated cortical cells were plated on a preexisting astrocyte monolayer in a 24-well plate (a plating density of ˜2.5×10^5 cells per well). The plating medium was Eagle's minimal essential medium (MEM) (Earle's salts, supplied glutamine-free) supplemented with 5% fetal bovine serum, 5% horse serum, 2 mM glutamine and 20 mM glucose. Non-neuronal cell division was halted at 3-5 days in vitro by 3-day exposure to […] cytosine arabinoside. Cultures were maintained in humidified 5% CO2 incubators at 37° C. and were used for experiments at 14-16 days in vitro.
Absorption measurements: The UV-visible absorption spectra were obtained using Agilent 8453 or Shimadzu UV 2501 spectrometers. The spectra were recorded in the 310 nm to 450 nm range, at a spectral resolution of 2 nm, using a 1 cm quartz cuvette as the sample holder. […]
Dissociated mouse cortical cells were obtained as outlined in the Materials and Methods section. […] CNQX was added to the cells such that the final absorption of the sample in the 310 nm to 450 nm range was less than 1 absorbance unit. […]

The target in experiment [2] is T1, GluR2-S1S2 (ligand-binding domain of the GluR2 subunit of the glutamate receptor) (Rattus norvegicus, UniProt P19491).
T1 construct: made in house
T1 sequence (P19491 411-527): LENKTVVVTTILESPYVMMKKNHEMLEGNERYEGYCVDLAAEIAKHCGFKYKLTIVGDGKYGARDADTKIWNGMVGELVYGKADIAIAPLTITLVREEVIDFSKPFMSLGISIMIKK
T1 sequence (P19491 653-796): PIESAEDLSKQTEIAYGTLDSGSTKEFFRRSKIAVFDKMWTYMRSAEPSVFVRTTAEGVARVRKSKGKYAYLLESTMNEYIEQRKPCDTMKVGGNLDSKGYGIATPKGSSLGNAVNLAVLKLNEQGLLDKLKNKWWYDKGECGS
The experiment is described as follows: Quinoxaline (CNQX) displacement assay with GluR2-S1S2, visible difference absorption spectra. Conditions: GluR2-S1S2 bound to 25 μM CNQX; test ligand 50 μM; phosphate buffer pH 7.4; 310 nm to 450 nm; FIG. 1 traces B-E.
Excerpt: To begin, a baseline or control spectrum of the free quinoxaline derivative in buffer solution is generated. A second spectrum is then taken of the quinoxaline admixed with the receptor under investigation. A difference spectrum is then generated between the first spectrum (free quinoxaline) and second spectrum (protein-bound quinoxaline). The characteristic features of this difference spectrum arise due to changes in the electronic spectrum of the quinoxaline derivative bound to the protein as compared to the electronic spectrum of the free quinoxaline. Thus, the difference spectrum can be used as the control to test for compounds that compete for the same binding site as quinoxaline derivative.
With the difference spectrum in hand as a control, a known amount of a test agent is added to a test well containing the receptor protein and the quinoxaline derivative. […] A visible spectrum is than taken of the test well. This test spectrum is then compared to the control spectrum to see if they share the same characteristic changes in the electronic character of the quinoxaline. […]

Turning to `N[C@@H](CCC(=O)O)C(=O)O` [glutamate], in experiment [1], the “displacement of CNQX from the non-NMDA glutamate receptors in cortical cells (difference spectrum)” value is reported as “is displaced by the addition of glutamate”. On to `NCCCC(=O)O` [γ-amino butyric acid], for which the “displacement of CNQX from the non-NMDA glutamate receptors in cortical cells (difference spectrum)” value in experiment [1] was “CNQX is not displaced”. For the same molecule, the “displacement of bound CNQX from the receptor protein (difference spectrum)” value in experiment [2] was “does not displace CNQX from the protein”.
